Source: US5608091A, “Quinizarin compound, method for production thereof, and use therefor” (Nippon Shokubai Co., Ltd., priority 1993, dated 1997)

Assays:
Color tone of the dye = type: physicochemical; settings: Tables 1-9
[1] = Visible absorption spectrum (λmax, ε); type: physicochemical; settings: for ε: in M-1 cm-1 (unit assumed)
[2] = Stability in storage of thermal transfer recorded images; settings: 50° C., 50 hours
Method: The recorded images obtained as described above were left standing in an atmosphere kept at 50° C. for 50 hours and, after the standing, were examined to determine the presence or absence of change caused on the images owing to the standing.
(§1) Ink compositions were prepared, transfer sheets produced, and transfer recording carried out by following the procedure of Example 89 while using the dye shown in Table 11 instead. The recorded images were tested for lightfastness and then for stability in storage in the same manner as in Example 89.
as §1, with “dyes” for “dye”, “12” for “11”

[3] = Solubility in toluene and methyl ethyl ketone, three-point scale; type: physicochemical
Source text: In these tables, the solubility is rated on the three-point scale, wherein Δ stands for a solubility of less than 1% by weight, .largecircle. for a solubility in the approximate range of 1 to 3% by weight, and .circleincircle. for a solubility of not less than 3% by weight.

| Structure (SMILES) | Color tone (Color tone of the dye) | λ max ([1]; in chloroform) | ε ([1]; in chloroform, at λ max) | Stability in storage [2] | λ max ([1]; in toluene) | ε ([1]; in toluene) | Solubility ([3]; in toluene) | Solubility in methyl ethyl ketone [3] | Solubility in toluene ([3]; in toluene) |
| --- | --- | --- | --- | --- | --- | --- | --- | --- | --- |
| CCCCCCCCOc1c(Nc2cccc(C(=O)OCC)c2)c(Nc2cccc(C(=O)OCC)c2)c(F)c2c1C(=O)c1c(O)ccc(O)c1C2=O [(156)] | – | – | – | Good | – | – | – | – | – |
| CCCCOc1c(Nc2c(C(C)C)cccc2C(C)C)c(Nc2c(C(C)C)cccc2C(C)C)c(F)c2c1C(=O)c1c(O)ccc(O)c1C2=O [(159)] | – | – | – | Good | – | – | – | – | – |
| CCCCOc1c(Nc2c(C)cccc2C(=O)OCC)c(Nc2c(C)cccc2C(=O)OCC)c(F)c2c1C(=O)c1c(O)ccc(O)c1C2=O [(162)] | – | – | – | Good | – | – | – | – | – |
| N#Cc1c(F)c(F)c(Sc2c(F)c3c(c(F)c2Sc2c(F)c(F)c(C#N)c(F)c2F)C(=O)c2c(O)ccc(O)c2C3=O)c(F)c1F [(300)] | Cinnabar | 521 nm | 13200 | – | – | – | – | Δ (a solubility of less than 1% by weight) | Δ (a solubility of less than 1% by weight) |
| CCCCCCSc1c(F)c2c(c(F)c1SCCCCCC)C(=O)c1c(O)ccc(O)c1C2=O [(303)] | Orange | 506 nm | 11300 | – | – | – | – | .largecircle. (a solubility in the approximate range of 1 to 3% by weight) | .largecircle. (a solubility in the approximate range of 1 to 3% by weight) |
| CCCCCCCCSc1c(F)c2c(c(F)c1SCCCCCCCC)C(=O)c1c(O)ccc(O)c1C2=O [(304)] | Orange | 504 nm | 14600 | – | – | – | – | .largecircle. (a solubility in the approximate range of 1 to 3% by weight) | .largecircle. (a solubility in the approximate range of 1 to 3% by weight) |
| CC(C)(C)Sc1c(F)c2c(c(F)c1SC(C)(C)C)C(=O)c1c(O)ccc(O)c1C2=O [(305)] | Orange | 506 nm | 15300 | – | – | – | – | .circleincircle. (a solubility of not less than 3% by weight) | .circleincircle. (a solubility of not less than 3% by weight) |
| O=C1c2c(O)ccc(O)c2C(=O)c2c(F)c(SC3CCCCC3)c(SC3CCCCC3)c(F)c21 [(306)] | Orange | 508 nm | 14000 | – | – | – | – | .largecircle. (a solubility in the approximate range of 1 to 3% by weight) | .circleincircle. (a solubility of not less than 3% by weight) |
| O=C1c2c(O)ccc(O)c2C(=O)c2c(Sc3ccccc3)c(Sc3ccccc3)c(Sc3ccccc3)c(Sc3ccccc3)c21 [(307)] | Brown | 495 nm | 12600 | – | – | – | – | .largecircle. (a solubility in the approximate range of 1 to 3% by weight) | .largecircle. (a solubility in the approximate range of 1 to 3% by weight) |
| CCCCSc1c(SCCCC)c(SCCCC)c2c(c1SCCCC)C(=O)c1c(O)ccc(O)c1C2=O [(308)] | Magenta | 530 nm | 11100 | – | – | – | – | .largecircle. (a solubility in the approximate range of 1 to 3% by weight) | .circleincircle. (a solubility of not less than 3% by weight) |

Further lines, with some results ahead:

| Color tone (Color tone of the dye) | λ max ([1]; in chloroform) | ε ([1]; in chloroform, at λ max) | Stability in storage [2] | λ max ([1]; in toluene) | ε ([1]; in toluene) | Solubility ([3]; in toluene) | Structure (SMILES) | Solubility in methyl ethyl ketone [3] | Solubility in toluene ([3]; in toluene) |
| --- | --- | --- | --- | --- | --- | --- | --- | --- | --- |
| Magenta | 521 nm | 9470 | Good | – | – | – | O=C1c2c(O)ccc(O)c2C(=O)c2c(F)c(Nc3c(Cl)cccc3Cl)c(F)c(F)c21 [(22)] | .largecircle. (a solubility in the approximate range of 1 to 3% by weight) | .circleincircle. (a solubility of not less than 3% by weight) |
| – | – | – | Good | – | – | – | CCCCCCCCOc1c(F)c2c(c(F)c1Nc1ccc(C(=O)OCC)cc1)C(=O)c1c(O)ccc(O)c1C2=O [(33)] | – | – |
| Magenta | 534 nm | 12700 | Good | – | – | – | CCCCCCCCOc1c(F)c2c(c(F)c1Nc1ccc(C(=O)OCCCC)cc1)C(=O)c1c(O)ccc(O)c1C2=O [(36)] | .circleincircle. (a solubility of not less than 3% by weight) | .circleincircle. (a solubility of not less than 3% by weight) |
| Magenta | 524 nm | 13200 | Good | – | – | – | CCCCCCCCOc1c(F)c2c(c(F)c1Nc1ccc([N+](=O)[O-])cc1)C(=O)c1c(O)ccc(O)c1C2=O [(41)] | .circleincircle. (a solubility of not less than 3% by weight) | .circleincircle. (a solubility of not less than 3% by weight) |
| Magenta | 524 nm | 15400 | Good | – | – | – | CCCCCCCCOc1c(F)c2c(c(F)c1Nc1ccc(C#N)cc1)C(=O)c1c(O)ccc(O)c1C2=O [(45)] | .circleincircle. (a solubility of not less than 3% by weight) | .circleincircle. (a solubility of not less than 3% by weight) |
| Purple | 563 nm | 11400 | Good | – | – | – | CCCCCCCCOc1c(F)c2c(c(F)c1Nc1c(CC)cccc1CC)C(=O)c1c(O)ccc(O)c1C2=O [(51)] | .circleincircle. (a solubility of not less than 3% by weight) | .circleincircle. (a solubility of not less than 3% by weight) |
| – | – | – | Good | 516 nm | 15600 | Not less than 3 % by weight | O=C1c2ccc(Nc3c(Cl)cccc3Cl)cc2C(=O)c2c(O)ccc(O)c21 [(102)] | – | – |
| Cyan | 657 nm | 3000 | Good | – | – | – | CCc1cccc(CC)c1Nc1c(F)c2c(c(F)c1Nc1c(CC)cccc1CC)C(=O)c1c(O)ccc(O)c1C2=O [(137)] | .largecircle. (a solubility in the approximate range of 1 to 3% by weight) | .circleincircle. (a solubility of not less than 3% by weight) |
| Cyan | 660 nm | 26000 | Good | – | – | – | CC(C)c1cccc(C(C)C)c1Nc1c(F)c2c(c(F)c1Nc1c(C(C)C)cccc1C(C)C)C(=O)c1c(O)ccc(O)c1C2=O [(139)] | .largecircle. (a solubility in the approximate range of 1 to 3% by weight) | .circleincircle. (a solubility of not less than 3% by weight) |
| – | – | – | Good | – | – | – | CCc1ccc(Cl)c(CC)c1Nc1c(F)c2c(c(F)c1Nc1c(CC)ccc(Cl)c1CC)C(=O)c1c(O)ccc(O)c1C2=O [(141)] | – | – |
| – | – | – | Good | – | – | – | CCCCOc1c(Nc2c(CC)cccc2CC)c(Nc2c(CC)cccc2CC)c(F)c2c1C(=O)c1c(O)ccc(O)c1C2=O [(158)] | – | – |
| – | – | – | Good | – | – | – | CCCCOc1c(Nc2c(CC)ccc(Cl)c2CC)c(Nc2c(CC)ccc(Cl)c2CC)c(F)c2c1C(=O)c1c(O)ccc(O)c1C2=O [(160)] | – | – |
| – | – | – | Good | – | – | – | CCCCCCCCOc1c(Nc2c(Cl)cccc2Cl)c(Nc2c(Cl)cccc2Cl)c(F)c2c1C(=O)c1c(O)ccc(O)c1C2=O [(183)] | – | – |
| Cinnabar | 514 nm | 12900 | – | – | – | – | O=C1c2c(O)ccc(O)c2C(=O)c2c(F)c(Sc3ccc(O)cc3)c(Sc3ccc(O)cc3)c(F)c21 [(301)] | .largecircle. (a solubility in the approximate range of 1 to 3% by weight) | .largecircle. (a solubility in the approximate range of 1 to 3% by weight) |
| Cinnabar | 504 nm | 15100 | – | – | – | – | COc1ccc(Sc2c(F)c3c(c(F)c2Sc2ccc(OC)cc2)C(=O)c2c(O)ccc(O)c2C3=O)cc1 [(302)] | .largecircle. (a solubility in the approximate range of 1 to 3% by weight) | .largecircle. (a solubility in the approximate range of 1 to 3% by weight) |
